{"source": "paper PMC10813862", "about": "“Gαi2 Protein Inhibition Blocks Chemotherapy- and Anti-Androgen-Induced Prostate Cancer Cell Migration” (Cancers, 2024)", "key": {"PC3 cells": {"system": "PC3 cells", "experiment": "transwell migration assay, PC3 cells", "type": "cell-based, human", "settings": "for effect on PC3 cell migration (migration index): compound alone, concentration range 0.1 to 100 μM, 5 h, compared with 14; for PC3 cell migration in combination with SAHA or docetaxel: Gαi2 inhibitor at 20 μM, in combination with either SAHA or docetaxel", "method": "In vitro transwell migration assays were conducted as described previously. Briefly, the outside of the transwell inserts (BD Biosciences, San Jose, CA, USA) were coated with 50 µL of rat tail collagen (50 μg/mL; BD Biosciences, San Jose, CA, USA) overnight at 4 °C. The next day, 50 μL of the aforementioned rat tail collagen was added for 1 h at room temperature into the transwell inserts to coat the inside of the membranes. DU145, PC3 and LNCaP cells were trypsinized and suspended at the appropriate density (3 × 10^5 cells/insert for DU145 and PC3, and 5 × 10^5 cells/insert for LNCaP) in MEM or RPMI containing 0.2% BSA (Sigma-Aldrich, St. Louis, MO, USA). Chemoattractant solution, used as the positive control, was made by diluting the epidermal growth factor (EGF) (10 ng/mL) into MEM (PC3 and DU145) or RPMI (LNCaP) supplemented with 0.2% BSA. Media containing 0.2% BSA served as a control. Control and EGF solutions (400 μL) were added into the wells of a 24-well plate. Aliquots of 100 μL of cell suspensions, treated with or without the different compounds at several concentrations, were loaded into the transwell inserts, and the plates were incubated at 37 °C for 5 h (DU145 and PC3) or 24 h (LNCaP). The cells inside the transwell inserts were removed by cotton swabs, and the cleaned inserts were fixed with 350 μL of 4% paraformaldehyde (pH 7.5) for 20 min at room temperature. Cells that had migrated to the outside of the transwell insert membrane were stained with 3 ng/mL of DAPI solution (Thermo Fisher Scientific, Eugene, OR, USA), and images of five non-overlapping fields were captured using an Axiovert 200M, Carl Zeiss (Thornwood, NY, USA) microscope. The number of stained nuclei were determined with automatic counting using image analysis software (ZEN 2012 (blue edition, Version 1.1.1.0); Carl Zeiss Microscopy GmbH, Oberkochen, Germany). The results were expressed as a migration index defined as the average number of cells per field for test substance/the average number of cells per field for the medium control."}, "LNCaP cells": {"system": "LNCaP cells", "experiment": "MTS viability, LNCaP cells", "type": "cell-based", "settings": "Homo sapiens, 72 h, n=3", "method": "(§1) Figure S1A. Effects of compounds 3- 7, 10, 12, 13 and 15 on the viability of LNCaP,\n(§2) MDA-MD-231, MCF-7 and Vero cells. The cells are incubated with the drugs for 72 h\n(§3) and viability evaluated with MTS. NI = IC50 greater than 100 μM. n=3\n(§4) Compound LNCaP (µM) MDA-MB-231 (µM) MCF-7 (µM) Vero (µM)"}, "MDA-MB-231 cells": {"system": "MDA-MB-231 cells", "experiment": "MTS viability, MDA-MB-231 cells", "type": "cell-based", "settings": "Homo sapiens, 72 h, n=3", "method": "as §1, §2, §3, §4"}, "MCF-7 cells": {"system": "MCF-7 cells", "experiment": "MTS viability, MCF-7 cells", "type": "cell-based", "settings": "Homo sapiens, MCF7, 72 h, n=3", "method": "as §1, §2, §3, §4"}, "Vero cells": {"system": "Vero cells", "experiment": "MTS viability, Vero cells", "type": "cell-based", "settings": "Chlorocebus sabaeus, 72 h, n=3", "method": "as §1, §2, §3, §4"}, "[1]": {"experiment": "stability in human plasma", "type": "in vitro ADME", "settings": "read-out: Plasma t1/2, Human", "description": "Table 1 Stability of compounds 6, 7 and 10 in human and mouse plasma and liver microsomes. | column: Plasma (t1/2 = Min) / Human"}, "[2]": {"experiment": "stability in mouse plasma", "type": "in vitro ADME", "settings": "read-out: Plasma t1/2, Mouse", "description": "Table 1 Stability of compounds 6, 7 and 10 in human and mouse plasma and liver microsomes. | column: Plasma (t1/2 = Min) / Mouse"}, "[3]": {"experiment": "stability in human liver microsomes", "type": "in vitro ADME", "settings": "read-out: Microsome t1/2, Human", "description": "Table 1 Stability of compounds 6, 7 and 10 in human and mouse plasma and liver microsomes. | column: Microsome (t1/2 = Min) / Human"}, "[4]": {"experiment": "stability in mouse liver microsomes", "type": "in vitro ADME", "settings": "read-out: Microsome t1/2, Mouse", "description": "Table 1 Stability of compounds 6, 7 and 10 in human and mouse plasma and liver microsomes. | column: Microsome (t1/2 = Min) / Mouse"}}}
{"smiles": "Cn1c(/C=N/c2ccc(O)cc2)cc2ccccc21", "note": "[Compound 3]", "values": [{"measurement": "effect on PC3 cell migration (migration index)", "setting": "PC3 cells", "result": "concentration dependent reduction of PC3 cell migration, but less efficiently relative to 14"}, {"measurement": "IC50", "setting": "LNCaP cells", "result": "> 100", "unit": "µM"}, {"measurement": "IC50", "setting": "MDA-MB-231 cells", "result": "> 100", "unit": "µM"}, {"measurement": "IC50", "setting": "MCF-7 cells", "result": "> 100", "unit": "µM"}, {"measurement": "IC50", "setting": "Vero cells", "result": "> 100", "unit": "µM"}]}
{"smiles": "CSc1ccc(/N=C(\\C)c2cc3ccccc3n2C)cc1", "note": "[Compound 4]", "values": [{"measurement": "effect on PC3 cell migration (migration index)", "setting": "PC3 cells", "result": "concentration dependent reduction of PC3 cell migration, but less efficiently relative to 14"}, {"measurement": "IC50", "setting": "LNCaP cells", "result": "> 100", "unit": "µM"}, {"measurement": "IC50", "setting": "MDA-MB-231 cells", "result": "> 100", "unit": "µM"}, {"measurement": "IC50", "setting": "MCF-7 cells", "result": "> 100", "unit": "µM"}, {"measurement": "IC50", "setting": "Vero cells", "result": "> 100", "unit": "µM"}]}
{"smiles": "Cn1c(CNc2ccc(O)cc2)cc2ccccc21", "note": "[Compound 5]", "values": [{"measurement": "effect on PC3 cell migration (migration index)", "setting": "PC3 cells", "result": "comparable potency"}, {"measurement": "IC50", "setting": "LNCaP cells", "result": "> 100", "unit": "µM"}, {"measurement": "IC50", "setting": "MDA-MB-231 cells", "result": "> 100", "unit": "µM"}, {"measurement": "IC50", "setting": "MCF-7 cells", "result": "> 100", "unit": "µM"}, {"measurement": "IC50", "setting": "Vero cells", "result": "> 100", "unit": "µM"}]}
{"smiles": "CC(Nc1ccc(O)cc1)c1cc2ccccc2n1C", "note": "(centres unmarked) [Compound 6]", "values": [{"measurement": "PC3 cell migration in combination with SAHA or docetaxel", "setting": "PC3 cells", "result": "decreased significantly PC3 cell migration"}, {"measurement": "effect on PC3 cell migration (migration index)", "setting": "PC3 cells", "result": "more effective relative to 14"}, {"measurement": "half-life", "setting": "[1]", "result": "> 120", "unit": "min"}, {"measurement": "half-life", "setting": "[2]", "result": 27, "unit": "min"}, {"measurement": "half-life", "setting": "[3]", "result": 118, "unit": "min"}, {"measurement": "half-life", "setting": "[4]", "result": 47, "unit": "min"}, {"measurement": "IC50", "setting": "LNCaP cells", "result": "86.8 ± 10.8", "unit": "µM"}, {"measurement": "IC50", "setting": "MDA-MB-231 cells", "result": "27.3 ± 4.8", "unit": "µM"}, {"measurement": "IC50", "setting": "MCF-7 cells", "result": "75.7 ± 5.3", "unit": "µM"}, {"measurement": "IC50", "setting": "Vero cells", "result": "32.4 ± 1.6", "unit": "µM"}]}
{"smiles": "CSc1ccc(NC(C)c2cc3ccccc3n2C)cc1", "note": "(centres unmarked) [Compound 7]", "values": [{"measurement": "PC3 cell migration in combination with SAHA or docetaxel", "setting": "PC3 cells", "result": "decreased significantly PC3 cell migration"}, {"measurement": "effect on PC3 cell migration (migration index)", "setting": "PC3 cells", "result": "more effective relative to 14"}, {"measurement": "half-life", "setting": "[1]", "result": "> 120", "unit": "min"}, {"measurement": "half-life", "setting": "[2]", "result": "> 120", "unit": "min"}, {"measurement": "half-life", "setting": "[3]", "result": 45, "unit": "min"}, {"measurement": "half-life", "setting": "[4]", "result": "< 10", "unit": "min"}, {"measurement": "IC50", "setting": "LNCaP cells", "result": "43.4 ± 3.9", "unit": "µM"}, {"measurement": "IC50", "setting": "MDA-MB-231 cells", "result": "> 100", "unit": "µM"}, {"measurement": "IC50", "setting": "MCF-7 cells", "result": "> 100", "unit": "µM"}, {"measurement": "IC50", "setting": "Vero cells", "result": "> 100", "unit": "µM"}]}
{"smiles": "CSc1ccc(OC(C)c2cc3ccccc3n2C)cc1", "note": "(centres unmarked) [Compound 10]", "values": [{"measurement": "PC3 cell migration in combination with SAHA or docetaxel", "setting": "PC3 cells", "result": "decreased significantly PC3 cell migration"}, {"measurement": "effect on PC3 cell migration (migration index)", "setting": "PC3 cells", "result": "less potent compared to 7"}, {"measurement": "half-life", "setting": "[1]", "result": "> 120", "unit": "min"}, {"measurement": "half-life", "setting": "[2]", "result": "> 120", "unit": "min"}, {"measurement": "half-life", "setting": "[3]", "result": 35, "unit": "min"}, {"measurement": "half-life", "setting": "[4]", "result": "< 10", "unit": "min"}, {"measurement": "IC50", "setting": "LNCaP cells", "result": "> 100", "unit": "µM"}, {"measurement": "IC50", "setting": "MDA-MB-231 cells", "result": "> 100", "unit": "µM"}, {"measurement": "IC50", "setting": "MCF-7 cells", "result": "> 100", "unit": "µM"}, {"measurement": "IC50", "setting": "Vero cells", "result": "> 100", "unit": "µM"}]}
{"smiles": "CC(Oc1ccc(S(C)(=O)=O)cc1)c1cc2ccccc2n1C", "note": "(centres unmarked) [Compound 12]", "values": [{"measurement": "effect on PC3 cell migration (migration index)", "setting": "PC3 cells", "result": "less effective"}, {"measurement": "IC50", "setting": "LNCaP cells", "result": "> 100", "unit": "µM"}, {"measurement": "IC50", "setting": "MDA-MB-231 cells", "result": "> 100", "unit": "µM"}, {"measurement": "IC50", "setting": "MCF-7 cells", "result": "> 100", "unit": "µM"}, {"measurement": "IC50", "setting": "Vero cells", "result": "> 100", "unit": "µM"}]}
